Assay results taken from patent US20240342292A1, “Compounds for the Degradation of EGFR Kinase” (BeiGene Switzerland GmbH, priority 2021, published 2024).

Experiments:
[1] = test system: Del19/T790M/C797S EGFR; assay: EGFR degradation HTRF assay in H1975-clone #28 (DTC) cells; type: cell-based; details: H1975 # 28 DTC (Del19/T790M/C797S), 16h treatment; for DC50: HTRF; for Dmax (%): maximum percentage of degradation
Excerpt: (§1) H1975-clone #28(Del19/T790M/C797S, or abbr: DTC), H1975-clone #23(Del19/C797S, or abbr: DC), H1975-clone #25(L858R/T790M/C797S, or abbr: LTC) and H1975-clone #8 (L858R/C797S, or abbr: LC). EGFR-Del19:T790M/C797S, EGFR-Del19/C797S, EGFR-L858R/T790M/C797S and EGFR-L858R/C797S were stably expressed in H1975 cell lines by lentivirus-mediated over-expression, respectively. The EGFR over-expressed cells then underwent knockout, in which the EGFR targeting sgRNA was designed to only target the endogenous EGFR copies and preserve the exogenous EGFR copies. Followed by the knockout, the edited H1975 cells were seeded in 96 well plates at the concentration of […], cultured for about 2 weeks to allow single clones formation. The formed clones were screened by DNA sequencing and whole exon sequencing analysis for the desired edition. H1975-clone #28, H1975-clone #23, H1975-clone #25 and H1975-clone #8 were finally confirmed as homozygous Del19/T790M/C797S EGFR, Dell9/C797S EGFR, L858R/T790M/C797S EGFR and L858R/C797S EGFR clones, respectively.
(§2) H1975-#25, H1975-#28, H1975-#23 and H1975-#8 cells are treated with compounds diluted in 0.2% DMSO cell culture medium on day 2, incubate for 16h, 37° C., 5% CO2. the final concentration of compounds in all assay is start with 10 uM, 5-fold dilution, total 8 doses were included.
(§3) After 16h treatment, add HTRF lysis buffer to each well; seal the plate and incubate 1 hour at room temperature on a plate shaker; Once the cells are lysed, 16 μL of cell lysate are transferred to a PE 384-well HTRF detection plate; 4 μL of pre-mixed HTRF antibodies are added to each well; Cover the plate with a plate sealer, spin 1000 rpm for 1 min, Incubate overnight at room temperature; Read on BMG PheraStar with HTRF protocol (337 nm-665 nm-620 nm).
(§4) The IC50 (DC50) value of a compound can be obtained by fitting the following equation
(§5) Y=Bottom+(TOP−Bottom)/(1+((IC50/X)^hillslope))
(§6) Wherein, X and Y are known values, and IC50, Hillslope, Top and Bottom are the parameters obtained by fitting with software. Y is the inhibition percentage (calculated from the equation), X is the concentration of the compound: IC50 is the concentration of the compound when the 50% inhibition is reached. The smaller the IC50 value is, the stronger the inhibitory ability of the compound is. Vice versa, the higher the IC50 value is, the weaker the ability the inhibitory ability of the compound is: Hillslope represents the slope of the fitted curve, generally around 1*; Bottom represents the minimum value of the curve obtained by data fitting, which is generally 0%±20%; Top represents the maximum value of the curve obtained by data fitting, which is generally 100%±20%. The experimental data were fitted by calculating and analyzing with Dotmatics data analysis software.

[2] = biological target: T1, L858R/T790M/C797S EGFR (Homo sapiens, UniProt P00533, C797S/L858R/T790M); assay: EGFR degradation HTRF assay in H1975-clone #25 (LTC) cells; type: cell-based; details: 16h treatment; for DC50: H1975 # 25-LTC (L858R/T790M/C797S), HTRF; for Dmax: NCI-H1975, H1975 # 25-LTC (L858R/T790M/C797S), maximum percentage of degradation
T1 construct: expressed in transfected cells; host or cells: H1975 clone #25 (lentiviral over-expression, endogenous EGFR knocked out by sgRNA)
T1 sequence (P00533 25-1210 T790M/C797S/L858R): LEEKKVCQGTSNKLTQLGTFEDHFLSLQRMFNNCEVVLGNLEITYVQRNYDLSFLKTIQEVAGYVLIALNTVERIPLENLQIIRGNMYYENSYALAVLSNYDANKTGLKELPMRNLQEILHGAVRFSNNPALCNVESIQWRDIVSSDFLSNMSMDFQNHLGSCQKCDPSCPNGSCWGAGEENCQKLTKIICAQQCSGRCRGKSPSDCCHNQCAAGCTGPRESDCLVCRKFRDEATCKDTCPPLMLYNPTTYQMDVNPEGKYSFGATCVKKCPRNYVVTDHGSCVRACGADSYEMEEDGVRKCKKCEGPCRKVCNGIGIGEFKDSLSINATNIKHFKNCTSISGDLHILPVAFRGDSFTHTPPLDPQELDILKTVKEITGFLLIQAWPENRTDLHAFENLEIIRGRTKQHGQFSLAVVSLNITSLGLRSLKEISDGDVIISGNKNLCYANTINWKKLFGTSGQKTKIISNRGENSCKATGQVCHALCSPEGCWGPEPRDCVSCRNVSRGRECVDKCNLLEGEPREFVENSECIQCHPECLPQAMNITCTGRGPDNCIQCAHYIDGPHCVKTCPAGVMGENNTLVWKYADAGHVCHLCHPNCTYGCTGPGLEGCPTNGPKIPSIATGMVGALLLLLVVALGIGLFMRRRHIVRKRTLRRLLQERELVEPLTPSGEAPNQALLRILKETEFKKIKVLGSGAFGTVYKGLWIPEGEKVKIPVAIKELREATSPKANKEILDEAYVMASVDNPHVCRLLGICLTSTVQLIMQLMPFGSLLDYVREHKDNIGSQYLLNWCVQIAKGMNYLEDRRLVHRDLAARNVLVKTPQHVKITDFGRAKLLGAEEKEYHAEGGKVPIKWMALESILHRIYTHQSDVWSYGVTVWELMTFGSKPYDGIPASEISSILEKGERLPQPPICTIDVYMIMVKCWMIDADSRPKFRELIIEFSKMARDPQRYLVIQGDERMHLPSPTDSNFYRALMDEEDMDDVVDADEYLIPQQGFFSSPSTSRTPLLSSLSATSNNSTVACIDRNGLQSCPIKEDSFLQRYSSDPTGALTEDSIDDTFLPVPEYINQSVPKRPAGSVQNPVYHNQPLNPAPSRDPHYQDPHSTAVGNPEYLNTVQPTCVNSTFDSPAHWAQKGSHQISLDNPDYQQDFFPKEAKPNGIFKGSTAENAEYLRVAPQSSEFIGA
Excerpt: as §1, §2, §3, §4, §5, §6

## Cc1cc2cc(n1)-c1cnn(C)c1OCCC[C@@H](C)CN1/C(=N/C2=O)Nc2ccc(N3CC4(CCN(CC5CN(c6cc(F)c([C@H]7CCC(=O)NC7=O)c(F)c6)C5)CC4)CC3=O)cc21 [Example 406, (R)-3-(2,6-difluoro-4-(3-((3-oxo-2-((R,E)-1^1,2^6,7-trimethyl-3-oxo-5^2,5^3-dihydro-1^1H,5^1H-11-oxa-4-aza-5(2,1)-benzo[d]imidazola-2(2,4)-pyridina-1(4,5)-pyrazolacycloundecaphane-5^6-yl)-2,8-diazaspiro[4.5]decan-8-yl)methyl)azetidin-1-yl)phenyl)piperidine-2,6-dione]
[1]
  DC50: 1.09 nM
  Dmax (%): 85.15%
[2]
  DC50: 1.65 nM
  Dmax: 89.6%

## Cc1cc2cc(n1)-c1cnn(C)c1OCC[C@@H]1C[C@H]1CN1/C(=N/C2=O)Nc2ccc(N3CCN(C4CCN(c5cnc(C6CCC(=O)NC6=O)cc5C)CC4)CC3)cc21 (stereo partly shown) [Example 470, 3-(5-(4-(4-((7^1R,7^2S,E)-1^1,2^6-dimethyl-3-oxo-5^2,5^3-dihydro-1^1H,5^1H-10-oxa-4-aza-5(2,1)-benzo[d]imidazola-2(2,4)-pyridina-1(4,5)-pyrazola-7(1,2)-cyclopropanacyclodecaphane-5^6-yl)piperazin-1-yl)piperidin-1-yl)-4-methylpyridin-2-yl)piperidine-2,6-dione]
[1]
  DC50: 0.617 nM
  Dmax (%): 86.76%
[2]
  DC50: 0.849 nM
  Dmax: 92.1%

## Cc1cc2cc(n1)-c1cnn(C)c1OCCC[C@@H](C)CN1/C(=N/C2=O)Nc2ccc(C(=O)N(C)[C@H]3CCN(CCc4cc(F)c([C@H]5CCC(=O)NC5=O)c(F)c4)C[C@@H]3F)cc21 [Example 247, (R,E)-N-((3S,4S)-1-(4-((R)-2,6-dioxopiperidin-3-yl)-3,5-difluorophenethyl)-3-fluoropiperidin-4-yl)-N,1^1,2^6,7-tetramethyl-3-oxo-5^2,5^3-dihydro-1^1H,5^1H-11-oxa-4-aza-5(2,1)-benzo[d]imidazola-2(2,4)-pyridina-1(4,5)-pyrazolacycloundecaphane-5^6-carboxamide]
[1]
  DC50: 0.611 nM
  Dmax (%): 87.12%
[2]
  DC50: 0.6 nM
  Dmax: 92.5%

## Cc1cc2cc(n1)-c1cnn(C)c1OCCC[C@@H](C)CN1/C(=N/C2=O)Nc2ccc(CN3CCN(CC4CN(c5cc(F)c([C@H]6CCC(=O)NC6=O)c(F)c5)C4)CC3)c(C)c21 [Example 148, (R)-3-(2,6-difluoro-4-(3-((4-(((R,E)-1^1,2^6,5^7,7-tetramethyl-3-oxo-5^2,5^3-dihydro-1^1H,5^1H-11-oxa-4-aza-5(2,1)-benzo[d]imidazola-2(2,4)-pyridina-1(4,5)-pyrazolacycloundecaphane-5^6-yl)methyl)piperazin-1-yl)methyl)azetidin-1-yl)phenyl)piperidine-2,6-dione]
[1]
  DC50: 3.09 nM
  Dmax (%): 70.93%
[2]
  DC50: 1.89 nM
  Dmax: 78.7%

## Cc1cc2cc(n1)-c1cnn(C)c1OCCC[C@@H](C)CN1/C(=N/C2=O)Nc2ccc(C(=O)N3CCN(C4CCN(c5cc(F)c([C@H]6CCC(=O)NC6=O)c(F)c5)CC4)CC3)cc21 [Example 303, (R)-3-(2,6-difluoro-4-(4-(4-((R,E)-1^1,2^6,7-trimethyl-3-oxo-5^2,5^3-dihydro-1^1H,5^1H-11-oxa-4-aza-5(2,1)-benzo[d]imidazola-2(2,4)-pyridina-1(4,5)-pyrazolacycloundecaphane-5^6-carbonyl)piperazin-1-yl)piperidin-1-yl)phenyl)piperidine-2,6-dione]
[1]
  DC50: 0.246 nM
  Dmax (%): 63.64%
[2]
  DC50: 0.582 nM
  Dmax: 80.9%

## Cc1cc2cc(n1)-c1cnn(C)c1OCCC[C@@H](C)CN1/C(=N/C2=O)Nc2ccc(N(C)C3CCN(C(=O)[C@@H]4CCN(c5cc(F)c([C@H]6CCC(=O)NC6=O)c(F)c5)C4)CC3)cc21 [Example 172, (R)-3-(2,6-difluoro-4-((R)-3-(4-(methyl((R,E)-1^1,2^6,7-trimethyl-3-oxo-5^2,5^3-dihydro-1^1H,5^1H-11-oxa-4-aza-5(2,1)-benzo[d]imidazola-2(2,4)-pyridina-1(4,5)-pyrazolacycloundecaphane-5^6-yl)amino)piperidine-1-carbonyl)pyrrolidin-1-yl)phenyl)piperidine-2,6-dione]
[1]
  DC50: 0.663 nM
  Dmax (%): 75.08%
[2]
  DC50: 0.954 nM
  Dmax: 90.6%

## Cc1cc2cc(n1)-c1cnn(C)c1OCCC[C@@H](C)CN1/C(=N/C2=O)Nc2ccc(CN3CCN(C(=O)[C@@H]4CCN(c5ccc(F)c6c5n(C)c(=O)n6C5CCC(=O)NC5=O)C4)CC3)cc21 (stereo partly drawn) [Example 211, 3-(7-fluoro-3-methyl-2-oxo-4-((R)-3-(4-(((R,E)-1^1,2^6,7-trimethyl-3-oxo-5^2,5^3-dihydro-1^1H,5^1H-11-oxa-4-aza-5(2,1)-benzo[d]imidazola-2(2,4)-pyridina-1(4,5)-pyrazolacycloundecaphane-5^6-yl)methyl)piperazine-1-carbonyl)pyrrolidin-1-yl)-2,3-dihydro-1H-benzo[d]imidazol-1-yl)piperidine-2,6-dione]
[1]
  DC50: 0.901 nM
  Dmax (%): 75.24%
[2]
  DC50: 0.852 nM
  Dmax: 85.1%

## Cc1cc2cc(n1)-c1cnn(C)c1OCCC[C@@H](C)CN1/C(=N/C2=O)Nc2ccc(CN3CCN(C(=O)[C@H]4CN(c5cc(F)c([C@H]6CCC(=O)NC6=O)c(F)c5)CC4(C)C)CC3)cc21 [Example 77, (R)-3-(4-((R)-3,3-dimethyl-4-(4-(((R,E)-1^1,2^6,7-trimethyl-3-oxo-5^2,5^3-dihydro-1^1H,5^1H-11-oxa-4-aza-5(2,1)-benzo[d]imidazola-2(2,4)-pyridina-1(4,5)-pyrazolacycloundecaphane-5-yl)methyl)piperazine-1-carbonyl)pyrrolidin-1-yl)-2,6-difluorophenyl)piperidine-2,6-dione]
[1]
  DC50: 2.2 nM
  Dmax (%): 78.3%
[2]
  DC50: 1.7 nM
  Dmax: 83.4%

## Cc1cc2cc(n1)-c1cnn(C)c1OCCC[C@@H](C)CN1/C(=N/C2=O)Nc2ccc(N3CCN([C@H]4C[C@H](Nc5cc(F)c([C@H]6CCC(=O)NC6=O)c(F)c5)C4)CC3)cc21 (single isomer, unassigned) [Example 444]
[1]
  DC50: 1.3 nM
  Dmax (%): 82.11%
[2]
  DC50: 2.1 nM
  Dmax: 89%

## Cc1cc2cc(n1)-c1cnn(C)c1OCCC1CC1CN1/C(=N/C2=O)Nc2ccc(C(=O)N(C)C3CCN(CCc4cc(F)c([C@H]5CCC(=O)NC5=O)c(F)c4)CC3)cc21 (stereo partly drawn) [Example 234, (E)-N-(1-(4-((R)-2,6-dioxopiperidin-3-yl)-3,5-difluorophenethyl)piperidin-4-yl)-N,1^1,2^6-trimethyl-3-oxo-5^2,5^3-dihydro-1^1H,5^1H-10-oxa-4-aza-5(2,1)-benzo[d]imidazola-2(2,4)-pyridina-1(4,5)-pyrazola-7(1,2)-cyclopropanacyclodecaphane-5^6-carboxamide]
[1]
  DC50: 0.637 nM
  Dmax (%): 85.75%
[2]
  DC50: 1.09 nM
  Dmax: 90.1%
